Laboratory results: patent US20260137706A1, “METHODS OF TREATING INFLAMMATORY DISEASES” (INTERLINE THERAPEUTICS, INC., priority 2023, published 2026)

What was measured:
[1] = target: T1, GST-RIPK2 fusion protein (human RIPK2, amino acids 1-310) (Homo sapiens, UniProt O43353); test: RIPK2 binding competition assay (TR-FRET, Tracer 199 displacement); conditions: 10 nM Tracer 199, 1 nM GST-RIPK2, read-out: RIPK2 IC50
T1 construct: made in house; host or cells: baculovirus infected Sf9 cells
Summary of the method: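 GST-RIPK2 (human aa 1-310, Sf9-expressed; final 1 nM) with Tracer 199 (final 10 nM) and Tb-anti-GST (final 0.5 nM) in Tris pH 7.5 buffer, 45 min at 22 °C. TR-FRET 665/620 nm ratio after 337 nm excitation; normalized to no-inhibitor (0%) and no-protein (−100%), giving IC50.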

[2] = target: T2, binding of His-XIAP(BIR2)-avi fusion protein to GST-RIPK2 fusion protein (RIPK2/XIAP) (Homo sapiens, UniProt O43353); test: RIPK2-XIAP binding competition PPI assay (TR-FRET); conditions: RIPK2/XIAP binding competition PPI assay; for Emax: Amax, read-out: PPI Amax bin; for IC50: read-out: PPI IC50 bin
T2 construct: made in house; host or cells: baculovirus infected Sf9 cells
T2 sequence (O43353 1-310 limits assumed): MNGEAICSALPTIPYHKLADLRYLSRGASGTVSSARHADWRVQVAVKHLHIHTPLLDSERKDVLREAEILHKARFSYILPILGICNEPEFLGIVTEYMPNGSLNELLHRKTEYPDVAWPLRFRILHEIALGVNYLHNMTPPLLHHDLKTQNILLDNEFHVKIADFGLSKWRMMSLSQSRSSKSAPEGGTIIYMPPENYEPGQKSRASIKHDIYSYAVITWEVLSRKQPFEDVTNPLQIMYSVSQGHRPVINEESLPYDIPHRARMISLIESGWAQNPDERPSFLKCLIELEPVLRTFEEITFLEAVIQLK
Summary of the method: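 Compounds (in DMSO, 100-fold stock) incubated 120 min at 23 °C with 1 nM GST-RIPK2 (aa 1-310) and 25 nM His-XIAP(BIR2 aa 152-231)-avi, plus anti-His-XL665 and anti-GST-Tb, in pH 7.5 Tris buffer. Read-out: 665/520 nm emission ratio. Normalized to no-inhibitor (0%) and 50 nM GSK583 (−100%); Amax binned A–D.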

[3] = tested on: NF-κB pathway (SEAP) in THP1-Dual cells; test: THP-1 Dual cell SEAP assay (L18-MDP stimulated); assay type: cell-based; conditions: Homo sapiens, THP1-Dual, read-out: NF-κB THP1 IC50 bin
Summary of the method: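 THP1-Dual cells (~25,000/well) were preincubated 30 min with serially diluted compounds, then stimulated with 10 ng/mL L18-MDP (final) for 20-24 h at 37 °C. Supernatant SEAP was read with QUANTI-Blue at OD 620-655 nm after 2 h. IC50 came from non-linear fits of % inhibition versus DMSO/L18-MDP controls after media-blank subtraction.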

T1 sequence (O43353 1-310): as the sequence (O43353 1-310 limits assumed) above

COc1cc2ncc(-c3cccc(NS(=O)(=O)C4CCN(C(=O)OC(C)(C)C)C4)c3)n2cc1S(=O)(=O)C(C)(C)C (stereo not drawn) [Example 153, tert-butyl 3-(N-(3-(6-(tert-butylsulfonyl)-7-methoxyimidazo[1,2-a]pyridin-3-yl)phenyl)sulfamoyl)pyrrolidine-1-carboxylate]
IC50 [1]: 0.0025 to 0.02 µM
Emax [2]: > 80%
IC50 [2]: > 0.02 µM
IC50 [3]: > 1 µM

CCC(C)(C)S(=O)(=O)c1cn2c(-c3cc(F)c(N)nc3F)cnc2cc1OC [Example 69, 3,6-difluoro-5-(7-methoxy-6-(tert-pentylsulfonyl)imidazo[1,2-a]pyridin-3-yl)pyridin-2-amine]
IC50 [1]: 0.0025 to 0.02 µM
Emax [2]: > 80%
IC50 [2]: 0.0025 to 0.02 µM
IC50 [3]: 0.25 to 1 µM

COc1cc2ncc(-c3cccc(NS(=O)(=O)CC4CC4)c3)n2cc1S(=O)(=O)C(C)(C)C [Example 151, N-(3-(6-(tert-butylsulfonyl)-7-methoxyimidazo[1,2-a]pyridin-3-yl)phenyl)-1-cyclopropylmethanesulfonamide]
IC50 [1]: 0.001 to 0.0025 µM
Emax [2]: > 80%
IC50 [2]: 0.001 to 0.0025 µM
IC50 [3]: 0.25 to 1 µM

COc1cc2ncc(-c3ccc4c(N)nccc4c3)n2cc1S(=O)(=O)C(C)(C)C [Example 90, 6-(6-(tert-butylsulfonyl)-7-methoxyimidazo[1,2-a]pyridin-3-yl)isoquinolin-1-amine]
IC50 [1]: 0.0025 to 0.02 µM
Emax [2]: < 30%
IC50 [2]: > 0.02 µM
IC50 [3]: 0.25 to 1 µM

CC(C)(C)S(=O)(=O)c1cn2c(-c3cc4c(F)c[nH]c4nc3F)cnc2cc1OCCO [Example 236, 2-((6-(tert-butylsulfonyl)-3-(3,6-difluoro-1H-pyrrolo[2,3-b]pyridin-5-yl)imidazo[1,2-a]pyridin-7-yl)oxy)ethan-1-ol]
IC50 [1]: < 0.001 µM
Emax [2]: > 80%
IC50 [2]: < 0.001 µM
IC50 [3]: < 0.05 µM

C[C@@H](CO)COc1cn2ncc(-c3cc(Cl)c(N)nc3F)c2cc1S(=O)(=O)C(C)(C)C [Example 199, (S)-3-((3-(6-amino-5-chloro-2-fluoropyridin-3-yl)-5-(tert-butylsulfonyl)pyrazolo [1,5-a]pyridin-6-yl)oxy)-2-methylpropan-1-ol]
IC50 [1]: < 0.001 µM
Emax [2]: > 80%
IC50 [2]: < 0.001 µM
IC50 [3]: 0.05 to 0.25 µM

CCS(=O)(=O)Nc1cc(-c2cnn3cc(OCCO)c(S(=O)(=O)C(C)(C)C)cc23)cc(F)c1OC [Example 130, N-(5-(5-(tert-butylsulfonyl)-6-(2-hydroxyethoxy)pyrazolo[1,5-a]pyridin-3-yl)-3-fluoro-2-methoxyphenyl)ethanesulfonamide]
IC50 [1]: < 0.001 µM
Emax [2]: 55 to 80%
IC50 [2]: < 0.001 µM
IC50 [3]: < 0.05 µM

CC(C)(C)S(=O)(=O)c1cn2c(-c3cc(F)c(N)nc3F)cnc2cc1-c1cn[nH]c1 [Example 31, 5-(6-(tert-butylsulfonyl)-7-(1H-pyrazol-4-yl)imidazo[1,2-a]pyridin-3-yl)-3,6-difluoropyridin-2-amine]
IC50 [1]: 0.0025 to 0.02 µM
Emax [2]: > 80%
IC50 [2]: 0.0025 to 0.02 µM
IC50 [3]: > 1 µM

CC(C)(C)S(=O)(=O)c1cn2c(-c3ccc4[nH]cnc4c3)cnc2cc1OCCO [Example 207, 2-((3-(1H-benzo[d]imidazol-5-yl)-6-(tert-butylsulfonyl)imidazo [1,2-a]pyridin-7-yl)oxy)ethan-1-ol]
IC50 [1]: 0.0025 to 0.02 µM
Emax [2]: < 30%
IC50 [2]: > 0.02 µM
IC50 [3]: > 1 µM

C[C@@H](CO)COc1cc2ncc(-c3cc(Cl)c(N)nc3F)n2cc1S(=O)(=O)C(C)(C)C [Example 201, (S)-3-((3-(6-amino-5-chloro-2-fluoropyridin-3-yl)-6-(tert-butylsulfonyl)imidazo [1,2-a]pyridin-7-yl)oxy)-2-methylpropan-1-ol]
IC50 [1]: 0.001 to 0.0025 µM
Emax [2]: > 80%
IC50 [2]: 0.001 to 0.0025 µM
IC50 [3]: 0.05 to 0.25 µM

CC(C)(C)S(=O)(=O)c1cn2c(-c3cc(F)c(N)nc3F)cnc2cc1OCC(F)(F)CO [Example 54, 3-((3-(6-amino-2,5-difluoropyridin-3-yl)-6-(tert-butylsulfonyl)imidazo[1,2-a]pyridin-7-yl)oxy)-2,2-difluoropropan-1-ol]
IC50 [1]: 0.001 to 0.0025 µM
Emax [2]: > 80%
IC50 [2]: 0.0025 to 0.02 µM
IC50 [3]: 0.05 to 0.25 µM

COc1cc2ncc(-c3cc(F)c(N)nc3F)n2cc1C1CCCN(C)C1=O (stereo not drawn) [Example 213, 3-(3-(6-amino-2,5-difluoropyridin-3-yl)-7-methoxyimidazo[1,2-a]pyridin-6-yl)-1-methylpiperidin-2-one]
IC50 [1]: > 0.02 µM
Emax [2]: 55 to 80%
IC50 [2]: > 0.02 µM
IC50 [3]: > 1 µM

CC(C)(C)S(=O)(=O)c1cn2c(-c3cc(F)c(N)nc3F)cnc2cc1CO [Example 39, (3-(6-amino-2,5-difluoropyridin-3-yl)-6-(tert-butylsulfonyl)imidazo[1,2-a]pyridin-7-yl)methanol]
IC50 [1]: > 0.02 µM
Emax [2]: > 80%
IC50 [2]: > 0.02 µM
IC50 [3]: > 1 µM

Cc1c[nH]c2ncc(-c3cnc4cc(OCCO)c(S(=O)(=O)C(C)(C)C)cn34)cc12 [Example 218, 2-((6-(tert-butylsulfonyl)-3-(3-methyl-1H-pyrrolo[2,3-b]pyridin-5-yl)imidazo[1,2-a]pyridin-7-yl)oxy)ethan-1-ol]
IC50 [1]: 0.0025 to 0.02 µM
Emax [2]: 55 to 80%
IC50 [2]: 0.0025 to 0.02 µM
IC50 [3]: > 1 µM

CC(C)(C)S(=O)(=O)c1cn2c(-c3cc(Br)c(N)nc3F)cnc2cc1OCCO [Example 186, 2-((3-(6-amino-5-bromo-2-fluoropyridin-3-yl)-6-(tert-butylsulfonyl)imidazo[1,2-a]pyridin-7-yl)oxy)ethan-1-ol]
IC50 [1]: 0.0025 to 0.02 µM
Emax [2]: > 80%
IC50 [2]: 0.0025 to 0.02 µM
IC50 [3]: 0.25 to 1 µM

CCCS(=O)(=O)Nc1cc(-c2cnc3cc(OC)c(C(=O)N(C)C(C)C)cn23)cc(F)c1OC [Example 205, 3-(3-fluoro-4-methoxy-5-(propylsulfonamido)phenyl)-N-isopropyl-7-methoxy-N-methylimidazo[1,2-a]pyridine-6-carboxamide]
IC50 [1]: > 0.02 µM
Emax [2]: 55 to 80%
IC50 [2]: > 0.02 µM
IC50 [3]: > 1 µM

COc1cc2ncc(-c3cccc(NS(=O)(=O)C4CCOCC4)c3)n2cc1S(=O)(=O)C(C)(C)C [Example 147, N-(3-(6-(tert-butylsulfonyl)-7-methoxyimidazo[1,2-a]pyridin-3-yl)phenyl)tetrahydro-2H-pyran-4-sulfonamide]
IC50 [1]: 0.0025 to 0.02 µM
Emax [2]: > 80%
IC50 [2]: 0.0025 to 0.02 µM
IC50 [3]: 0.25 to 1 µM

COc1cc2ncc(-c3cc(N)nc(F)c3)n2cc1C(F)(F)F [Example 2, 6-fluoro-4-(7-methoxy-6-(trifluoromethyl)imidazo[1,2-a]pyridin-3-yl)pyridin-2-amine]
IC50 [1]: 0.0025 to 0.02 µM
Emax [2]: < 30%
IC50 [2]: > 0.02 µM
IC50 [3]: 0.05 to 0.25 µM

COc1cc2ncc(-c3cccc(NS(=O)(=O)C4CCNCC4)c3)n2cc1S(=O)(=O)C(C)(C)C [Example 158, N-(3-(6-(tert-butylsulfonyl)-7-methoxyimidazo[1,2-a]pyridin-3-yl)phenyl)piperidine-4-sulfonamide]
IC50 [1]: > 0.02 µM
Emax [2]: > 80%
IC50 [2]: > 0.02 µM
IC50 [3]: > 1 µM

COc1c(F)cc(-c2cnc3cc(OCCO)c(S(=O)(=O)C(C)(C)C)cn23)cc1NS(C)(=O)=O [Example 223, N-(5-(6-(tert-butylsulfonyl)-7-(2-hydroxyethoxy)imidazo [1,2-a]pyridin-3-yl)-3-fluoro-2-methoxyphenyl) methanesulfonamide]
IC50 [1]: < 0.001 µM
Emax [2]: 55 to 80%
IC50 [2]: < 0.001 µM
IC50 [3]: 0.05 to 0.25 µM

COc1cc2ncc(-c3ccc4c(N)nn(C)c4c3)n2cc1S(=O)(=O)C(C)(C)C [Example 102, 6-(6-(tert-butylsulfonyl)-7-methoxyimidazo[1,2-a]pyridin-3-yl)-1-methyl-1H-indazol-3-amine]
IC50 [1]: > 0.02 µM
Emax [2]: < 30%
IC50 [2]: > 0.02 µM
IC50 [3]: > 1 µM

COc1cc2ncc(-c3cccc(NS(=O)(=O)C4COC4)c3)n2cc1S(=O)(=O)C(C)(C)C [Example 150, N-(3-(6-(tert-butylsulfonyl)-7-methoxyimidazo[1,2-a]pyridin-3-yl)phenyl)oxetane-3-sulfonamide]
IC50 [1]: 0.0025 to 0.02 µM
Emax [2]: > 80%
IC50 [2]: 0.0025 to 0.02 µM
IC50 [3]: > 1 µM

CC(C)(C)S(=O)(=O)c1cn2c(-c3cc(F)c(N)nc3F)cnc2cc1OCC1(O)CC1 [Example 177, 1-(((3-(6-amino-2,5-difluoropyridin-3-yl)-6-(tert-butylsulfonyl)imidazo[1,2-a]pyridin-7-yl)oxy)methyl)cyclopropan-1-ol]
IC50 [1]: 0.001 to 0.0025 µM
Emax [2]: > 80%
IC50 [2]: 0.0025 to 0.02 µM
IC50 [3]: 0.05 to 0.25 µM

COc1c(F)cc(-c2cnc3cc(OC[C@@H](C)O)c(S(=O)(=O)C(C)(C)C)cn23)cc1NS(C)(=O)=O [Example 255, (R)-N-(5-(6-(tert-butylsulfonyl)-7-(2-hydroxypropoxy)imidazo [1,2-a]pyridin-3-yl)-3-fluoro-2-methoxyphenyl) methanesulfonamide]
IC50 [1]: 0.001 to 0.0025 µM
Emax [2]: 55 to 80%
IC50 [2]: < 0.001 µM
IC50 [3]: 0.05 to 0.25 µM
